Measured values from ChEMBL document CHEMBL5576097, “Synthesis and biological evaluation of novel penindolone derivatives as potential antiproliferative agents against SCLC in vitro” (Bioorg Med Chem Lett, 2024).
Activity calls are given as the source filed them. The rule behind the calls is not given here.

Tests used:
H69AR [1] = assay: Antiproliferative activity against human NCI-H69AR cells by SRB assay; assay type: functional, cell-based
A549 = assay: Antiproliferative activity against human A549 cells by SRB assay; assay type: functional, cell-based
NCI-H358 = assay: Antiproliferative activity against human NCI-H358 cells by SRB assay; assay type: functional, cell-based
H69AR [2] = assay: Inhibition of colony formation in human NCI-H69AR cells; assay type: functional, cell-based; settings: dose 0-8 µM
H69AR [3] = assay: Inhibition of colony formation in human NCI-H69AR cells at 8 uM relative to control; assay type: functional
H69AR [4] = assay: Induction of cell cycle arrest in human NCI-H69AR cells assessed as reduction in number of cells in S phase measured after 24 hrs by flow cytometry analysis; assay type: functional, cell-based; settings: dose 0-8 µM
H69AR [5] = assay: Induction of cell cycle arrest in human NCI-H69AR cells assessed as increase in number of cells in G0/G1 phase at 0 to 8 uM measured after 24 hrs by flow cytometry analysis; assay type: functional, cell-based; settings: dose 0-8 µM
H69AR [6] = assay: Induction of apoptosis in human NCI-H69AR cells assessed as increase in cleaved caspase-8 protein expression by Western blot analysis; assay type: functional, cell-based; settings: dose 0.5-8 µmol/L
H69AR [7] = assay: Induction of apoptosis in human NCI-H69AR cells assessed as increase in cleaved PARP protein expression by Western blot analysis; assay type: functional, cell-based; settings: dose 0.5-8 µmol/L
H69AR [8] = assay: Induction of apoptosis in human NCI-H69AR cells assessed as increase in BAX protein expression by Western blot analysis; assay type: functional, cell-based; settings: dose 0.5-8 µmol/L
H69AR [9] = assay: Induction of apoptosis in human NCI-H69AR cells assessed as reduction in Bcl-2 protein expression by Western blot analysis; assay type: functional, cell-based; settings: dose 0.5-8 µmol/L
H69AR [10] = assay: Induction of apoptosis in human NCI-H69AR cells assessed as reduction in XIAP protein expression by Western blot analysis; assay type: functional, cell-based; settings: dose 0.5-8 µmol/L
H69AR [11] = assay: Induction of apoptosis in human NCI-H69AR cells assessed as live cells at 2 micromol/L measured after 48 hrs by Annexin V-FITC/PI staining based flow cytometry analysis (reference value: 97.7%); assay type: functional; settings: dose 2 µmol/L, at 2 µM
H69AR [12] = assay: Induction of apoptosis in human NCI-H69AR cells assessed as early apoptotic cells at 2 micromol/L measured after 48 hrs by Annexin V-FITC/PI staining based flow cytometry analysis (reference value: 1.96%); assay type: functional; settings: dose 2 µmol/L, at 2 µM
H69AR [13] = assay: Induction of apoptosis in human NCI-H69AR cells assessed as late apoptotic cells at 2 micromol/L measured after 48 hrs by Annexin V-FITC/PI staining based flow cytometry analysis (reference value: 0.38%); assay type: functional; settings: dose 2 µmol/L, at 2 µM
H69AR [14] = assay: Induction of apoptosis in human NCI-H69AR cells assessed as dead cells at 2 micromol/L measured after 48 hrs by Annexin V-FITC/PI staining based flow cytometry analysis (reference value: 0%); assay type: functional; settings: dose 2 µmol/L, at 2 µM
H69AR [15] = assay: Induction of apoptosis in human NCI-H69AR cells assessed as live cells at 4 micromol/L measured after 48 hrs by Annexin V-FITC/PI staining based flow cytometry analysis (reference value: 97.7%); assay type: functional; settings: dose 4 µmol/L, at 4 µM
H69AR [16] = assay: Induction of apoptosis in human NCI-H69AR cells assessed as early apoptotic cells at 4 micromol/L measured after 48 hrs by Annexin V-FITC/PI staining based flow cytometry analysis (reference value: 1.96%); assay type: functional; settings: dose 4 µmol/L, at 4 µM
H69AR [17] = assay: Induction of apoptosis in human NCI-H69AR cells assessed as late apoptotic cells at 4 micromol/L measured after 48 hrs by Annexin V-FITC/PI staining based flow cytometry analysis (reference value: 0.38%); assay type: functional; settings: dose 4 µmol/L, at 4 µM
H69AR [18] = assay: Induction of apoptosis in human NCI-H69AR cells assessed as dead cells at 4 micromol/L measured after 48 hrs by Annexin V-FITC/PI staining based flow cytometry analysis (reference value: 0%); assay type: functional; settings: dose 4 µmol/L, at 4 µM
H69AR [19] = assay: Induction of apoptosis in human NCI-H69AR cells assessed as live cells at 8 micromol/L measured after 48 hrs by Annexin V-FITC/PI staining based flow cytometry analysis (reference value: 97.7%); assay type: functional; settings: dose 8 µmol/L, at 8 µM
H69AR [20] = assay: Induction of apoptosis in human NCI-H69AR cells assessed as early apoptotic cells at 8 micromol/L measured after 48 hrs by Annexin V-FITC/PI staining based flow cytometry analysis (reference value: 1.96%); assay type: functional; settings: dose 8 µmol/L, at 8 µM
H69AR [21] = assay: Induction of apoptosis in human NCI-H69AR cells assessed as late apoptotic cells at 8 micromol/L measured after 48 hrs by Annexin V-FITC/PI staining based flow cytometry analysis (reference value: 0.38%); assay type: functional; settings: dose 8 µmol/L, at 8 µM
H69AR [22] = assay: Induction of apoptosis in human NCI-H69AR cells assessed as dead cells at 8 micromol/L measured after 48 hrs by Annexin V-FITC/PI staining based flow cytometry analysis (reference value: 0%); assay type: functional; settings: dose 8 µmol/L, at 8 µM

Cc1ccccc1C(=O)c1cc(C)c(O)c(Cc2[nH]c3ccccc3c2Cc2c(O)c(C)cc(C(=O)c3ccccc3C)c2O)c1O
IC50 (H69AR [1]): 3.17 µM

Cc1cc(C(=O)c2cccc(F)c2)c(O)c(Cc2[nH]c3ccccc3c2Cc2c(O)c(C)cc(C(=O)c3cccc(F)c3)c2O)c1O
IC50 (H69AR [1]): 1.94 µM

Cc1cc(C(=O)c2ccc3ccccc3c2)c(O)c(Cc2[nH]c3ccccc3c2Cc2c(O)c(C)cc(C(=O)c3ccc4ccccc4c3)c2O)c1O
IC50 (H69AR [1]): 41.5 µM

Cc1cc(C(=O)c2cccc(Br)c2)c(O)c(Cc2[nH]c3ccccc3c2Cc2c(O)c(C)cc(C(=O)c3cccc(Br)c3)c2O)c1O
IC50 (H69AR [1]): 1.86 µM

Cc1cc(C(=O)c2cccc(Cl)c2)c(O)c(Cc2[nH]c3ccccc3c2Cc2c(O)c(C)cc(C(=O)c3cccc(Cl)c3)c2O)c1O
IC50 (H69AR [1]): 2.81 µM

Cc1cccc(C(=O)c2cc(C)c(O)c(Cc3[nH]c4ccccc4c3Cc3c(O)c(C)cc(C(=O)c4cccc(C)c4)c3O)c2O)c1
IC50 (H69AR [1]): 4.78 µM

Cc1cc(C(=O)c2ccc(F)cc2)c(O)c(Cc2[nH]c3ccccc3c2Cc2c(O)c(C)cc(C(=O)c3ccc(F)cc3)c2O)c1O
IC50 (H69AR [1]): 2.21 µM

Cc1cc(C(=O)c2ccccc2)c(O)c(Cc2[nH]c3ccccc3c2Cc2c(O)c(C)cc(C(=O)c3ccccc3)c2O)c1O
IC50 (H69AR [1]): 7.58 µM

Cc1cc(C(=O)c2ccc(C(F)(F)F)cc2)c(O)c(Cc2[nH]c3ccccc3c2Cc2c(O)c(C)cc(C(=O)c3ccc(C(F)(F)F)cc3)c2O)c1O
IC50 (H69AR [1]): 4.02 µM

Cc1cc(C(=O)c2ccc(CCl)cc2)c(O)c(Cc2[nH]c3ccccc3c2Cc2c(O)c(C)cc(C(=O)c3ccc(CCl)cc3)c2O)c1O
IC50 (H69AR [1]): 13.2 µM

CCC(=O)c1cc(C)c(O)c(Cc2[nH]c3ccccc3c2Cc2c(O)c(C)cc(C(=O)CC)c2O)c1O
IC50 (H69AR [1]): > 50 µM

Cc1cc(C(=O)CC(C)C)c(O)c(Cc2[nH]c3ccccc3c2Cc2c(O)c(C)cc(C(=O)CC(C)C)c2O)c1O
IC50 (H69AR [1]): > 50 µM

CC(=O)c1cc(C)c(O)c(Cc2[nH]c3ccccc3c2Cc2c(O)c(C)cc(C(C)=O)c2O)c1O
IC50 (H69AR [1]): 42.5 µM

Cc1ccc(C(=O)c2cc(C)c(O)c(Cc3[nH]c4ccccc4c3Cc3c(O)c(C)cc(C(=O)c4ccc(C)cc4)c3O)c2O)cc1
IC50 (H69AR [1]): 3.41 µM

Cc1cc(C(=O)c2ccc(Br)cc2)c(O)c(Cc2[nH]c3ccccc3c2Cc2c(O)c(C)cc(C(=O)c3ccc(Br)cc3)c2O)c1O
IC50 (H69AR [1]): 1.58 µM
IC50 (A549): 21.2 µM
IC50 (NCI-H358): 35.8 µM
inhibition (H69AR [2]): Dose-Dependent Effect
inhibition at 8 µM (H69AR [3]): 100%
Activity (H69AR [4]): Dose-Dependent Effect
Activity (H69AR [5]): Active
Activity (H69AR [6]): Dose-Dependent Effect
Activity (H69AR [7]): Dose-Dependent Effect
Activity (H69AR [8]): Dose-Dependent Effect
Activity (H69AR [9]): Dose-Dependent Effect
Activity (H69AR [10]): Dose-Dependent Effect
Activity (H69AR [11]): 92.9%
Activity (H69AR [12]): 4.85%
Activity (H69AR [13]): 2.24%
Activity (H69AR [14]): 0.01%
Activity (H69AR [15]): 82.9%
Activity (H69AR [16]): 11.3%
Activity (H69AR [17]): 5.7%
Activity (H69AR [18]): 0.057%
Activity (H69AR [19]): 62.8%
Activity (H69AR [20]): 28.5%
Activity (H69AR [21]): 8.22%
Activity (H69AR [22]): 0.46%

Cc1cc(C(=O)c2ccc(Cl)cc2)c(O)c(Cc2[nH]c3ccccc3c2Cc2c(O)c(C)cc(C(=O)c3ccc(Cl)cc3)c2O)c1O
IC50 (H69AR [1]): 1.64 µM

COc1cccc(C(=O)c2cc(C)c(O)c(Cc3[nH]c4ccccc4c3Cc3c(O)c(C)cc(C(=O)c4cccc(OC)c4)c3O)c2O)c1
IC50 (H69AR [1]): 4.25 µM

CCc1cc(C(C)=O)c(O)c(Cc2[nH]c3ccccc3c2Cc2c(O)c(CC)cc(C(C)=O)c2O)c1O
IC50 (H69AR [1]): > 50 µM

Cc1cc(C(=O)c2ccccc2Cl)c(O)c(Cc2[nH]c3ccccc3c2Cc2c(O)c(C)cc(C(=O)c3ccccc3Cl)c2O)c1O
IC50 (H69AR [1]): 5.97 µM

Cc1cc(C(=O)c2ccccc2Br)c(O)c(Cc2[nH]c3ccccc3c2Cc2c(O)c(C)cc(C(=O)c3ccccc3Br)c2O)c1O
IC50 (H69AR [1]): 7 µM

Cc1cc(C(=O)c2ccc(Cl)cc2Cl)c(O)c(Cc2[nH]c3ccccc3c2Cc2c(O)c(C)cc(C(=O)c3ccc(Cl)cc3Cl)c2O)c1O
IC50 (H69AR [1]): 4 µM

COc1ccc(C(=O)c2cc(C)c(O)c(Cc3[nH]c4ccccc4c3Cc3c(O)c(C)cc(C(=O)c4ccc(OC)cc4)c3O)c2O)cc1
IC50 (H69AR [1]): 3.36 µM

Cc1cc(C(=O)c2ccccc2F)c(O)c(Cc2[nH]c3ccccc3c2Cc2c(O)c(C)cc(C(=O)c3ccccc3F)c2O)c1O
IC50 (H69AR [1]): 5.34 µM
